In patent publication US12201671B2, “Polypeptides for treatment of cancer” (Saint Joseph's University, priority 2019, dated 2025):
Where no end group is shown, it is not given here. The star is where a group is joined. Biotin = O=C1N[C@H]2[C@H](CS[C@H]2CCCCC(=O)*)N1

T1: Estrogen Receptor α (Homo sapiens, UniProt P03372)
T1 sequence (P03372 1-595): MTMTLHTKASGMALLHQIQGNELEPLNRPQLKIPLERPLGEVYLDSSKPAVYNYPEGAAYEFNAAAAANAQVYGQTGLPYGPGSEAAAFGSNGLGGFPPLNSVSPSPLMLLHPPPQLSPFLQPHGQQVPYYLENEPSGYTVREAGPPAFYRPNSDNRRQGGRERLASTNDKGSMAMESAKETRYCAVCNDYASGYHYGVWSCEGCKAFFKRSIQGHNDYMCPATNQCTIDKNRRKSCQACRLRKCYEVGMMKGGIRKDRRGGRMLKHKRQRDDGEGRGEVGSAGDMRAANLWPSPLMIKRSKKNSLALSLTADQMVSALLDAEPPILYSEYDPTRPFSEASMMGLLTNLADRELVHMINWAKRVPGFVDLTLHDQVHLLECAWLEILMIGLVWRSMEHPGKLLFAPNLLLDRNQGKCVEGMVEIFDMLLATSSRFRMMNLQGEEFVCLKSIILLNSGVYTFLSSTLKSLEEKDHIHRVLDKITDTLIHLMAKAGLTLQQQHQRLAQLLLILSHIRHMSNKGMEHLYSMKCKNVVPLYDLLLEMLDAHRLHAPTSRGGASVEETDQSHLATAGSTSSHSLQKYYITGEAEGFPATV

T2: ERα (Homo sapiens, UniProt P03372)
T2 sequence (P03372 1-595): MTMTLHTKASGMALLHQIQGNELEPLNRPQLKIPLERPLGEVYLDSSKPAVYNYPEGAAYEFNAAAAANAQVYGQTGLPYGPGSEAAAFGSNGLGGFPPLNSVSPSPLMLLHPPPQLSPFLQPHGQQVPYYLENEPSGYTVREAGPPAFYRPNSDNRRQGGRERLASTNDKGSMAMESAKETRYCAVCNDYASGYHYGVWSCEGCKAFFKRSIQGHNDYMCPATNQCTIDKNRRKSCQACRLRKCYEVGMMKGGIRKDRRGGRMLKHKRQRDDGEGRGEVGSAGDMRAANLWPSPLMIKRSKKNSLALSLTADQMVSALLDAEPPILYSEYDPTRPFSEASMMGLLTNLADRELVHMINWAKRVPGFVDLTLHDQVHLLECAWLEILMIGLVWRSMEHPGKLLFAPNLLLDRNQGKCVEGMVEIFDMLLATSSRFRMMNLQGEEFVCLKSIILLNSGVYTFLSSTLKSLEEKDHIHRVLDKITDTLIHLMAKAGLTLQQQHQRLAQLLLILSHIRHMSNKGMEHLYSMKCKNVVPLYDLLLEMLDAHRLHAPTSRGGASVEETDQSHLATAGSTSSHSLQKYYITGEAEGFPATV


Assays:
[1] = molecular target: T3, c-Jun (Homo sapiens, UniProt P05412); assay: Binding kinetics by biolayer interferometry (BLI), Octet HTX; details: 1:1 model; for koff: read-out: K off, binding to c-Jun; for kon: read-out: K on, binding to c-Jun
T3 construct: purchased Abcam
Method: The binding kinetics of the peptides and full-length recombinant CAPER (R&D Systems, Minneapolis, MN) with the c-Jun (Abcam, Cambridge, MA) were determined using biolayer interferometry (BLI) on the Octet HTX system (Pall ForteBio, Fremont, CA). Amine Reactive 2nd Generation biosensors (cat #18-5092, Pall ForteBio) were activated with 1-Ethyl-3-[3-dimethylaminopropyl] carbodiimide hydrochloride and N-hydroxysulfosuccinimide (EDC/NHS) (Amine Coupling Kit II, Cat #ACK-001-025, Sierra Sensors, Billerica, MA) and conjugated with an anti-his tag antibody. The reaction was then quenched with 1M ethanolamine (Amine Coupling Kit II, Cat #ACK-001-025, Sierra Sensors). His-tagged recombinant c-Jun was then bound to the tips. The peptides were tested at a series of 2-fold dilutions including a buffer blank. The binding of full-length recombinant CAPER was also tested. Association and dissociation steps were performed for 900s each in 1×HBS-EP+ buffer (cat #BR100669, GE Healthcare Lifesciences, Pittsburgh, PA) supplemented with 450 mM NaCl (Sigma). The background was subtracted from each run and kinetics data was analyzed using ForteBio's Data Analysis Software version 10.0.3.1 using a 1:1 model.

[2] = molecular target: T1, Estrogen Receptor α; assay: Binding kinetics (BLI) to Estrogen Receptor α; details: for koff: read-out: K off, binding to Estrogen Receptor α; for kon: read-out: K on, binding to Estrogen Receptor α
[3] = molecular target: T2, ERα; assay: Inhibition of full-length recombinant CAPER binding to ERα
[4] = tested on: BT549 cells; assay: Cell count after 7 day treatment; type: cell-based; details: BT549, 20 μM daily, 7 days, vs DMSO and TAT controls
Method: (§1) MDA-MB-231, BT549, and MCF10A cells were plated onto 10 cm plates at 50,000 cells per plate, 100,000 cells per plate and 25,000 cells, respectively. The cells were allowed to adhere overnight, the next day cells were with 20 μM of CAPER peptides along with a DMSO and TAT only controls. Cells were dosed daily for 7 days. At the end of the 7 day dosing period, floating cells were collected and adherent cells were trypsinized and counted via a hemocytometer.

[5] = tested on: MCF10A cells; assay: Cell count after 7 day treatment; type: cell-based; details: MCF10A non-tumorigenic, 20 μM daily, 7 days, vs DMSO and TAT controls
Method: as §1

[6] = tested on: MDA-MB-231 cells; assay: Cell count after 7 day treatment; type: cell-based; details: MDA-MB-231, 20 μM daily, 7 days, vs DMSO and TAT controls
Method: as §1

[7] = tested on: MCF7 cells; assay: Cell count after 7 day treatment with and without estradiol; type: cell-based; details: MCF7, 20 μM, 7 days, in the presence of estrogen
Method: (§2) MCF7 cells were switched to phenol free DMEM (cat #, 11054-020, Life Technologies), with 10% charcoal stripped FBS (cat #A33821-01, Life Technologies), 24 hrs prior to plating. After the starvation period, the cells were plated onto mm plates at cells/plate and allowed to adhere overnight. The next day cells were dosed with 20 μM of CAPER peptides along with a DMSO and TAT only controls with and without estradiol (E2) (cat #, Sigma). Cells were pre-treated with the peptide 4 hrs before the E2 was added. Cells were dosed daily for 7 days. At the end of the 7 day dosing period, floating cells were collected and adherent cells were trypsinized and counted via a hemocytometer

[8] = tested on: BT549 cells; assay: Apoptosis assays (Muse Caspase 3/7 and Annexin V); type: cell-based; details: BT549, 20 μM, 7 days
Method: (§3) Apoptosis was evaluated using both a Muse Caspase 3/7 kit (cat #MCH100108, EMD Millipore) and Muse Annexin V kit (Millipore cat #). Cells were treated for 7 days as described elsewhere herein, at the end of the 7 day dosing period, floating cells were collected and attached cells were washed 1× with PBS and then trypsinized with 0.05% trypsin. Cells were collected and combined with the floating cells. Cells were then counted and diluted to 20,000 cells/mL. For the caspase assay, 50 μL of cells were then incubated with the Muse Caspase 3/7 reagent at 37° C. for 30 min. After incubation 5 μL of 7-ADD dye was added and incubated for 5 min at room temperature. Cells were then analyzed on the Muse Cell Analyzer (Millipore). For the Annexin V assay, 100 μL of cells was then added to 100 μL of Annexin V reagent for 30 min at room temperature. Cells were then analyzed on the Muse Cell Analyzer (Millipore).

[9] = tested on: MDA-MB-231 cells; assay: Apoptosis assays (Muse Caspase 3/7 and Annexin V); type: cell-based; details: MDA-MB-231, 20 μM, 7 days
Method: as §3

[10] = tested on: MCF10A cells; assay: Apoptosis assay (Annexin V); type: cell-based; details: 20 μM, 7 days, vs DMSO and TAT controls
Method: as §3

[11] = tested on: MCF7 cells; assay: Apoptosis assays (Muse Caspase 3/7 and Annexin V); type: cell-based; details: MCF7, 20 μM, 7 days, in the presence of estrogen
Method: as §2, §3

[12] = tested on: BT549 cells; assay: Cell cycle assay, nocodazole synchronized cells; type: cell-based; details: BT549, 20 μM, 7 days
Method: (§4) MDA-MB-231 and BT549 cells were synchronized using nocodazole (cat #Sigma-Aldrich) for 24 hours. The floating cells were then aspirated off and the plate was rinsed with media to collect the loosely attached cells (G2/M fraction). The cells were then plated as described above. A fraction of the treated cells was processed for cell cycle to confirm synchronization. Cells were then treated for 7 days as described above, at the end of the 7 day dosing period, floating cells were collected and attached cells were washed 1× with PBS and then trypsinized with 0.05% trypsin. Cells were collected and combined with the floating cells. Cells were counted and diluted according to the Muse Cell Cycle Kit (cat #MCH100106, EMD Millipore) instructions and samples were then read on the Muse Cell Analyzer.

[13] = tested on: MDA-MB-231 cells; assay: Cell cycle assay, nocodazole synchronized cells; type: cell-based; details: MDA-MB-231, 20 μM, 7 days
Method: as §4

[14] = molecular target: T3, c-Jun; assay: BLI competition assay: full-length CAPER binding to peptide-saturated c-Jun; details: c-Jun saturated with peptide at 10x KD; compared to CAPER binding without peptide
Method: Competition assays were determined using BLI on the Octet HTX system (Pall ForteBio, Fremont, CA). Amine Reactive 2nd Generation biosensors (cat #18-5092, Pall ForteBio) were activated with 1-Ethyl-3-[3-dimethylaminopropyl] carbodiimide hydrochloride and N-hydroxysulfosuccinimide (EDC/NHS) (Amine Coupling Kit II, Cat #ACK-001-025, Sierra Sensors, Billerica, MA) and conjugated with an anti-his tag antibody. The reaction was then quenched with 1M ethanolamine (Amine Coupling Kit II, Cat #ACK-001-025, Sierra Sensors). Recombinant c-Jun containing a his-tag was then bound to the tips. The peptides were allowed to saturate the receptor at a concentration of 10× the KD of each peptide. After receptor saturation binding of full-length CAPER to the receptor was measured and the signal was compared back to full-length CAPER binding to the receptor in the absence of the peptide. Binding steps were performed for 900s each in 1× HBS-EP+ buffer (cat #BR100669, GE Healthcare Lifesciences, Pittsburgh, PA) supplemented with 450 mM NaCl (Sigma). The background was subtracted from each run and the signal was represented as a % inhibition compared to full-length CAPER binding in the absence of the peptide.

[15] = his-tagged c-Jun on anti-his tips

T3 sequence (P05412 whole entry): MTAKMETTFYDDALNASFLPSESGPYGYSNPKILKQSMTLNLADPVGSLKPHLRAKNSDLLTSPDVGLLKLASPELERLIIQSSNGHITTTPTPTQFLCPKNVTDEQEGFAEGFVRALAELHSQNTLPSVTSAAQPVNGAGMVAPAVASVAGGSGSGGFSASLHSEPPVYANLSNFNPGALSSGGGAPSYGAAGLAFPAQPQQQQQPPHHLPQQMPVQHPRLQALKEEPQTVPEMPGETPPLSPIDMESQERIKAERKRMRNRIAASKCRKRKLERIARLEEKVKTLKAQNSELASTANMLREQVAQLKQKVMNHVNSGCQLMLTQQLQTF

Row | koff [1] [s⁻¹] | kon [1] [M⁻¹ s⁻¹] | koff [2] [s⁻¹] | kon [2] [M⁻¹ s⁻¹] | Binding of full-length recombinant CAPER to ERα [3] | Molecule | Cell number [4] | Cell count [5] | Cell number [6] | Cell number [7] | Early apoptotic and apoptotic dead cells [8] | Live cells [8] | Early apoptotic and apoptotic dead cells [9] | Live cells [9] | Apoptotic cells [10] | Early apoptotic and apoptotic dead cells [11] | Live cells [11] | Effect on cell cycle [12] | Effect on cell cycle [13] | KD, binding to c-Jun [1, 15] | further results
1 | 0.000337 | 37900 | 0.000115 | 25400 | alter the binding | Biotin-RLQLMARLAEGTGLQIPPAAQQALQMSGSLAFGAVADLQTRLSQQ (N-terminus assumed) [CAPER peptide HCC1.3] | significant decrease | no significant change | significant decrease | significant decrease | significant increase | significant decrease | significant increase | significant decrease | no significant change | significant increase | significant decrease | no effect | no effect | – | –
2 | – | – | – | – | – | YGRKKRRQRRR [TAT only control, reference compound] | – | – | – | – | – | – | – | – | – | – | – | – | – | could not be determined | –
3 | 0.00098 | 38300 | 0.00172 | 57100 | alter the binding | Biotin-RLQLMARLAEGTGLQIPPAAQQALQMSGSLAFGAVAEFSFVIDLQ (N-terminus assumed) [CAPER peptide HCC1.4] | significant decrease | no significant change | significant decrease | significant decrease | significant increase | significant decrease | significant increase | significant decrease | no significant change | significant increase | significant decrease | no effect | no effect | – | –
4 | – | – | – | – | – | VGDALQGLRLFSTQASIGAQMEQLAAQPLRAGQMLQLAQASPLRT [CAPER scrambled peptide, scrambled control peptide, reference compound] | – | – | – | – | – | – | – | – | – | – | – | – | – | could not be determined | Inhibition of full-length recombinant CAPER binding to c-Jun [14]: no significant change
5 | – | – | – | – | – | Recombinant Full-Length CAPER HCC1.3: full-length recombinant CAPER (R&D Systems), isoform HCC1.3 (protein) MADDIDIEAMLEAPYKKDENKLSSANGHEERSKKRKKSKSRSRSHERKRSKSKERKRSRDRERKKSKSRERKRSRSKERRRSRSRSRDRRFRGRYRSPYSGPKFNSAIRGKIGLPHSIKLSRRRSRSKSPFRKDKSPVREPIDNLTPEERDARTVFCMQLAARIRPRDLEEFFSTVGKVRDVRMISDRNSRRSKGIAYVEFVDVSSVPLAIGLTGQRVLGVPIIVQASQAEKNRAAAMANNLQKGSAGPMRLYVGSLHFNITEDMLRGIFEPFGRIESIQLMMDSETGRSKGYGFITFSDSECAKKALEQLNGFELAGRPMKVGHVTERTDASSASSFLDSDELERTGIDLGTTGRLQLMARLAEGTGLQIPPAAQQALQMSGSLAFGAVADLQTRLSQQTEASALAAAASVQPLATQCFQLSNMFNPQTEEEVGWDTEIKDDVIEECNKHGGVIHIYVDKNSAQGNVYVKCPSIAAAIAAVNALHGRWFAGKMITAAYVPLPTYHNLFPDSMTATQLLVPSRR | – | – | – | – | – | – | – | – | – | – | – | – | – | – | K off, binding to c-Jun [1]: 5.66e-05 s⁻¹; K on, binding to c-Jun [1]: 312000 M⁻¹ s⁻¹; Kd [1, 15]: 0.18 nM; K off, binding to Estrogen Receptor α [2]: 2.34e-05 s⁻¹; K on, binding to Estrogen Receptor α [2]: 937000 M⁻¹ s⁻¹
